Key:
[1] = target: T1, Recombinant STAT3 protein (STAT3(G127-I722)) (Homo sapiens, UniProt P40763); test: STAT3 Fluorescence Polarization (FP) Assay; format: binding; settings: STAT3(G127-I722) 25 nM, probe 5-FAM-GpYLPQTV-NH2 2 nM, 45-minute incubation
T1 construct: Recombinant STAT3 protein (STAT3(G127-I722))
Summary of the method: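 Fluorescence polarization after a 45-min room-temperature incubation measured compound displacement of a 2 nM fluorescein-labelled phosphotyrosine peptide (5-FAM-GpYLPQTV-NH2) from 25 nM recombinant STAT3(G127-I722). Buffer was 10 mM HEPES pH 7.4 with 1% DMSO final. IC50s were fitted by nonlinear regression of mP against log concentration.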

[2] = target: T2, Recombinant STAT6 protein (STAT6(W123-T658)) (Homo sapiens, UniProt P42226); test: STAT6 Fluorescence Polarization (FP) Assay; format: binding; settings: STAT6(W123-T658) 250 nM, probe 5-FAM-ApYKPFQDLI-NH2 2 nM, 45-minute incubation
T2 construct: Recombinant STAT6 protein (STAT6(W123-T658))
T2 sequence (P42226 123-658): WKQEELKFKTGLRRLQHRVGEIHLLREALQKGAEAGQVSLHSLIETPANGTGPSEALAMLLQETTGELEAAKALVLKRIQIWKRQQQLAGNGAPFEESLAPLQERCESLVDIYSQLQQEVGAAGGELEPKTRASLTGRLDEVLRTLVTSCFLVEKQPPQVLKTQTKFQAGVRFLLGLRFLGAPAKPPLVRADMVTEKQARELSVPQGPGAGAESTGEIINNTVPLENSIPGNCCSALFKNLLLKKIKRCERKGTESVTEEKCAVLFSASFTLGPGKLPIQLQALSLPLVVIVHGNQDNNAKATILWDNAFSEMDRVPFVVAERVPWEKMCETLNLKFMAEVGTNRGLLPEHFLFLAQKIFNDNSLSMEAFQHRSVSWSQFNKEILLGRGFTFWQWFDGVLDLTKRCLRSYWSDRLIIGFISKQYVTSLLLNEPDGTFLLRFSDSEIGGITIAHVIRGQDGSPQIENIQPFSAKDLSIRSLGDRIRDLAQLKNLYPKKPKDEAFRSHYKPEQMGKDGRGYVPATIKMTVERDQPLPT
Summary of the method: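 Displacement of a fluorescent phosphotyrosine peptide (5-FAM-ApYKPFQDLI-NH2, 2 nM) from STAT6(W123-T658) (250 nM), 1% DMSO, pH 7.4 HEPES buffer. After 45 min at room temperature, polarization (mP) was plotted versus log compound concentration and fitted by nonlinear regression to give IC50.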

T1 sequence (P40763 127-722): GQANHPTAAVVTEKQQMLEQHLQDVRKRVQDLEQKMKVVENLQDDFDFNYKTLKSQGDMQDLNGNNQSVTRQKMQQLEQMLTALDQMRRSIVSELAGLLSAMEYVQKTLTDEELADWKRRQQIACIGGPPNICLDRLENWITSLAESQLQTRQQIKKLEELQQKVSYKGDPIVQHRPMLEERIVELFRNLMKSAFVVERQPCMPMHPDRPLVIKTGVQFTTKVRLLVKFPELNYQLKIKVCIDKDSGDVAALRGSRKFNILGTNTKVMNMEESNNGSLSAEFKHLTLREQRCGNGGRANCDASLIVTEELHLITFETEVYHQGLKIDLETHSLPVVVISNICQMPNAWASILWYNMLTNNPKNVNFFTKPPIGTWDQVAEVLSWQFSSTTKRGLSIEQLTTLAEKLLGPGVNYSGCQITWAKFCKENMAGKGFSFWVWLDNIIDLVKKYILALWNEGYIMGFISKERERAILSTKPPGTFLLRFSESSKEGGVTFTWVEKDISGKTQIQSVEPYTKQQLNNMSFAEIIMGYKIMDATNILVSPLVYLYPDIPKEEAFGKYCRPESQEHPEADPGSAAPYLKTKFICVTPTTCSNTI

| IC50 [1] | IC50 [2] | SMILES |
| --- | --- | --- |
| 1 to 10 µM | 0.3 to 3 µM | N#Cc1ccccc1-c1ccc(NC(=O)[C@@H]2CC[C@@H]3CCN(C(=O)Cc4ccccc4)C[C@H](NC(=O)c4cc5cc(C(F)(F)P(=O)(O)O)ccc5[nH]4)C(=O)N32)c(F)c1 [Compound 276, ((2-(((5S,8S,10aR)-8-((2′-cyano-3-fluoro-[1,1′-biphenyl]-4-yl)carbamoyl)-6-oxo-3-(2-phenylacetyl)decahydropyrrolo[1,2-a][1,5]diazocin-5-yl)carbamoyl)-1H-indol-5-yl)difluoromethyl)phosphonic acid] |
| ≤ 0.1 µM | 3 to 30 µM | O=C(N[C@H]1CN(CC(F)(F)F)CC[C@H]2CC[C@@H](C(=O)N3CC(C(=O)N4CCOCC4)C3)N2C1=O)c1cc2cc(C(F)(F)P(=O)(O)O)ccc2s1 [Compound 277, (difluoro(2-(((5S,8S,10aR)-8-(3-(morpholine-4-carbonyl)azetidine-1-carbonyl)-6-oxo-3-(2,2,2-trifluoroethyl)decahydropyrrolo[1,2-a][1,5]diazocin-5-yl)carbamoyl)benzo[b]thiophen-5-yl)methyl)phosphonic acid] |
| 0.1 to 1 µM | 3 to 30 µM | CCN1CC[C@H]2CC[C@@H](C(=O)N3CC(C(=O)N4CCOCC4)C3)N2C(=O)[C@@H](NC(=O)c2cc3cc(C(F)(F)P(=O)(O)O)ccc3s2)C1 [Compound 278, ((2-(((5S,8S,10aR)-3-ethyl-8-(3-(morpholine-4-carbonyl)azetidine-1-carbonyl)-6-oxodecahydropyrrolo[1,2-a][1,5]diazocin-5-yl)carbamoyl)benzo[b]thiophen-5-yl)difluoromethyl)phosphonic acid] |
| > 10 µM | ≤ 0.3 µM | CC(=O)N1CC[C@H]2CC[C@@H](C(=O)N3CC(c4ccn(C)c(=O)c4)CC34CC4)N2C(=O)[C@@H](NC(=O)c2ccc3ccc(C(F)P(=O)(O)O)cc3c2)C1 (stereo partly drawn) [Compound 354, ((7-(((5S,8S,10a R)-3-acetyl-8-(6-(1-methyl-2-oxo-1,2-dihydropyridin-4-yl)-4-azaspiro[2.4]heptane-4-carbonyl)-6-oxodeca-hydropyrrolo [1,2-a][1,5]diazocin-5-yl)carbamoyl)naphthalen-2-yl)fluoromethyl) phosphonic acid] |
| 1 to 10 µM | 0.3 to 3 µM | CC(=O)N1CC[C@H]2CC[C@@H](C(=O)N3CCC(c4cccnc4)C3)N2C(=O)[C@@H](NC(=O)c2ccc3ccc(C(F)P(=O)(O)O)cc3c2)C1 (stereo partly drawn) [Compound 355, ((7-(((5S,8S,10a R)-3-acetyl-6-oxo-8-(3-(pyridin-3-yl)pyrrolidine-1-carbonyl)decahydro-pyrrolo [1,2-a][1,5]diazocin-5-yl)carbamoyl)naphthalen-2-yl)fluoromethyl) phosphonic acid] |
| > 10 µM | 0.3 to 3 µM | CC(=O)N1CC[C@H]2CC[C@@H](C(=O)N3CC(c4ccn(C)c(=O)c4)CC34CC4)N2C(=O)[C@@H](NC(=O)c2ccc3ccc(CP(=O)(O)O)cc3c2)C1 (stereo partly drawn) [Compound 356, ((7-(((5S,8S,10a R)-3-acetyl-8-(6-(1-methyl-2-oxo-1,2-dihydropyridin-4-yl)-4-azaspiro[2.4]heptane-4-carbonyl)-6-oxodeca-hydropyrrolo [1,2-a][1,5]diazocin-5-yl)carbamoyl)naphthalen-2-yl)methyl) phosphonic acid] |
| > 10 µM | 0.3 to 3 µM | O=C(N[C@H]1CN(C(=O)c2ncn3ccccc23)CC[C@H]2CC[C@@H](C(=O)N3CCOCC3)N2C1=O)c1ccc2ccc(C(F)P(=O)(O)O)cc2c1 (stereo partly drawn) [Compound 357, (fluoro(7-(((5S,8S,10aR)-3-(imidazo[1,5-a]pyridine-1-carbonyl)-8-(morpholine-4-carbonyl)-6-oxodecahydro-pyrrolo[1,2-a][1,5]diazocin-5-yl)carbamoyl)naphthalen-2-yl)methyl)phosphonic acid] |
| > 10 µM | 0.3 to 3 µM | O=C(N[C@H]1CN(C(=O)c2noc3c2CCCC3)CC[C@H]2CC[C@@H](C(=O)N3CCOCC3)N2C1=O)c1ccc2ccc(C(F)P(=O)(O)O)cc2c1 (stereo partly drawn) [Compound 358, (fluoro(7-(((5S,8S,10aR)-8-(morpholine-4-carbonyl)-6-oxo-3-(4,5,6,7-tetra-hydrobenzo[d]isoxazole-3-carbonyl)decahydropyrrolo [1,2-a][1,5]diazocin-5-yl)carbamoyl)naphthalen-2-yl)methyl)phosphonic acid] |
| > 10 µM | 0.3 to 3 µM | O=C(N[C@H]1CN(C(=O)c2cc3ncccn3n2)CC[C@H]2CC[C@@H](C(=O)N3CCOCC3)N2C1=O)c1ccc2ccc(C(F)P(=O)(O)O)cc2c1 (stereo partly drawn) [Compound 359, (fluoro(7-(((5S,8S,10aR)-8-(morpholine-4-carbonyl)-6-oxo-3-(pyrazolo[1,5-a]pyrimidine-2-carbonyl)decahydropyrrolo[1,2-a] [1,5]diazocin-5-yl)carbamoyl)naphthalen-2-yl)methyl)phosphonic acid] |
| > 10 µM | 0.3 to 3 µM | O=C(N[C@H]1CN(C(=O)c2noc3c2COCC3)CC[C@H]2CC[C@@H](C(=O)N3CCOCC3)N2C1=O)c1ccc2ccc(C(F)P(=O)(O)O)cc2c1 (stereo partly drawn) [Compound 360, ((7-(((5S,8S,10aR)-3-(6,7-dihydro-4H-pyrano[3,4-d]isoxazole-3-carbonyl)-8-(morpholine-4-carbonyl)-6-oxodecahydropyrrolo [1,2-a][1,5]diazocin-5-yl)carbamoyl)naphthalen-2-yl)fluoromethyl) phosphonic acid] |
| > 10 µM | 3 to 30 µM | CCCS(=O)(=O)N1CC[C@H]2CC[C@@H](C(=O)N3CCOCC3)N2C(=O)[C@@H](NC(=O)c2ccc3ccc(C(F)P(=O)(O)O)cc3c2)C1 (stereo partly drawn) [Compound 361, (fluoro(7-(((5S,8S,10aR)-8-(morpholine-4-carbonyl)-6-oxo-3-(propylsulfonyl)decahydropyrrolo[1,2-a] [1,5]diazocin-5-yl)carbamoyl)naphthalen-2-yl)methyl)phosphonic acid] |
| > 10 µM | ≤ 0.3 µM | COc1ccc2onc(C(=O)N3CC[C@H]4CC[C@@H](C(=O)N5CCOCC5)N4C(=O)[C@@H](NC(=O)c4ccc5ccc(C(F)P(=O)(O)O)cc5c4)C3)c2c1 (stereo partly drawn) [Compound 362, (fluoro(7-(((5S,8S,10aR)-3-(5-methoxybenzo[d]isoxazole-3-carbonyl)-8-(morpholine-4-carbonyl)-6-oxodecahydropyrrolo [1,2-a][1,5]diazocin-5-yl)carbamoyl)naphthalen-2-yl)methyl)phosphonic acid] |
| > 10 µM | ≤ 0.3 µM | COc1ccc2c(C(=O)N3CC[C@H]4CC[C@@H](C(=O)N5CCOCC5)N4C(=O)[C@@H](NC(=O)c4ccc5ccc(C(F)P(=O)(O)O)cc5c4)C3)noc2c1 (stereo partly drawn) [Compound 363, (fluoro(7-(((5S,8S,10aR)-3-(6-methoxybenzoyl[d]isoxazole-3-carbonyl)-8-(morpholine-4-carbonyl)-6-oxodecahydropyrrolo [1,2-a][1,5]diazocin-5-yl)carbamoyl)naphthalen-2-yl)methyl)phosphonic acid] |
| > 10 µM | 0.3 to 3 µM | O=C(N[C@H]1CN(C(=O)c2ncn3c2CCCC3)CC[C@H]2CC[C@@H](C(=O)N3CCOCC3)N2C1=O)c1ccc2ccc(C(F)P(=O)(O)O)cc2c1 (stereo partly drawn) [Compound 364, (fluoro(7-(((5S,8S,10aR)-8-(morpholine-4-carbonyl)-6-oxo-3-(5,6,7,8-tetrahydroimidazo[1,5-a]pyridine-1-carbonyl)decahydropyrrolo[1,2-a][1,5]diazocin-5-yl)carbamoyl)naphthalen-2-yl)methyl)phosphonic acid] |
| > 10 µM | ≤ 0.3 µM | O=C(N[C@H]1CN(C(=O)c2noc3ccc(Cl)cc23)CC[C@H]2CC[C@@H](C(=O)N3CCOCC3)N2C1=O)c1ccc2ccc(C(F)P(=O)(O)O)cc2c1 (stereo partly drawn) [Compound 365, ((7-(((5S,8S,10aR)-3-(5-chlorobenzo[d]isoxazole-3-carbonyl)-8-(morpholine-4-carbonyl)-6-oxodecahydro-pyrrolo[1,2-a][1,5]diazocin-5-yl)carbamoyl)naphthalen-2-yl)fluoromethyl) phosphonic acid] |
| > 10 µM | 0.3 to 3 µM | Cc1ccc2cc(C(=O)N3CC[C@H]4CC[C@@H](C(=O)N5CCOCC5)N4C(=O)[C@@H](NC(=O)c4ccc5ccc(C(F)P(=O)(O)O)cc5c4)C3)cc(Cl)c2n1 (stereo partly drawn) [Compound 366, ((7-(((5S,8S,10aR)-3-(8-chloro-2-methyl-quinoline-6-carbonyl)-8-(morpholine-4-carbonyl)-6-oxodecahydropyrrolo [1,2-a][1,5]diazocin-5-yl)carbamoyl)naphthalen-2-yl)fluoromethyl) phosphonic acid] |
